The results in this text go back to patent US10925261B2, “Method for inducing feminization in Tilapia aurea via immersion with ethinyl estradiol” (GALLANT OCEAN INTERNATIONAL, INC., priority 2018, dated 2021).

This experiment has as its system Tilapia aurea fry. The experiment in a line: Induction of feminization in Tilapia aurea fry via immersion treatment with ethinyl estradiol. The format is in vivo. The following applies: 3 minutes, 25° C., 3 dph fry. The procedure:
Males and females of Tilapia aurea (about 12 months of age) provided by Prof. Chien-Hsien Kuo from the Department of Aquatic Biosciences at National Chiayi University (Taiwan) served as the parent fish in the following example. The male and female fish were separately raised in concrete ponds provided with water maintained at 25° C. and about 6 mg/L of dissolved oxygen under natural light, and were provided with feed ad libitum. Mating was carried out with a male-to-female ratio of 2:5. Fertilized eggs were flushed out from the oral cavity of the female fish to be collected, followed by incubation at 25° C. for 7 to 14 days. 3 dph fish fry were obtained.
Two immersion solutions respectively having ethinyl estradiol concentrations shown in Table 1 below were each prepared as follows. An appropriate amount of ethinyl estradiol was dissolved in 10 mL of ethanol, followed by mixing with 5 L of water in a water tank.
5 trials of feminization induction were conducted using a respective one of the two immersion solutions. Specifically, for each trial of feminization induction, the 3 dph Tilapia aurea fry (the amount thereof is shown in Table 1) were placed in the respective immersion solution at 25° C. for 3 minutes. […] After seven months of breeding, the gender of all the surviving fish was observed, and the feminization rate (i.e. the percentage of females) was calculated.

As to `C#C[C@]1(O)CC[C@H]2[C@@H]3CCc4cc(O)ccc4[C@H]3CC[C@@]21C` [ethinyl estradiol], the “Feminization rate (%) (percentage of females)” value (immersion 142.85 ppm, gender observed after seven months of breeding, trial 5) turned out to be 87%. Under “immersion 142.85 to 200 ppm, all 5 trials”, the “Feminization rate of each trial” value is not below 87%.
